Data reported in US20130225483A1, “New Treatments of Hepatitis C Virus Infection” (priority 2010, published 2013).

Tested on: HCV genotype 2 (GT2) and genotype 3 (GT3)
Assay: Phase II clinical study: proportion of patients HCV RNA negative by LOQ
Format: in vivo
Conditions: monotherapy arm (600 mg BID 1 week, then 1000 mg QD), 25 IU/mL
Description: The efficacy of the therapy regimen may be monitored using standard protocols. Treatment may be followed by determinations of HCV in serum and measurement of serum ALT levels. For example, the patients may be assessed for the presence of HCV RNA in their plasma. HCV RNA (IU/mL) can be measured at regular intervals during the treatment, e.g., at Day 1 (pre-dose and 4, 8, and 12 hours post-dose) and pre-dose at Day 2, Day 3, Day 8, Day 15, Day 29, and at Week 12, Week 24, Week 36, Week 48, Week 72 (when applicable), and at follow up. In addition, the HCV strains in the patient can be sequenced and assessed for identification of mutations selecting for resistance.
As used herein, LOD means limit of detection (serum HCV RNA is less than 10 IU/mL) and LOQ means limit of quantification (serum HCV RNA is less than 25 IU/mL). HCV RNA levels can be measured using commercially available methods. […]

C/C=C/C[C@@H](C)[C@@H](O)[C@H]1C(=O)N[C@@H](CC)C(=O)N(C)[C@H](C)C(=O)N(CC)[C@@H](C(C)C)C(=O)N[C@@H](C(C)C)C(=O)N(C)[C@@H](CC(C)C)C(=O)N[C@@H](C)C(=O)N[C@H](C)C(=O)N(C)[C@@H](CC(C)C)C(=O)N(C)[C@@H](CC(C)C)C(=O)N(C)[C@@H](C(C)C)C(=O)N1C [alisporivir, Alisporivir]
patients achieved HCV RNA negative results (fraction in words): one third
